Reference: patent US20250144067A1, “PERSONALIZED STARVATION THERAPY FOR CANCER” (Faeth Therapeutics, Inc., priority 2021, published 2025)
Where a name gives a salt, the structure may show the parent alone.

Assays:
[1] = system: NCI-H292 lung cancer cells; test: FDA drug screening, complete media vs cholesterol-free media without statin (TABLE 1); assay type: cell-based, human
[2] = system: NCI-H292 lung cancer cells; test: FDA drug screening, complete media vs cholesterol-free media with simvastatin (TABLE 2); assay type: cell-based, human; conditions: for Cholesterol-free media + simvastatin (0.04 μM) / Complete Media: NCI-H292 cells
[3] = Complete minus Cholesterol-free; >0 enhanced anti-cancer activity, about 0 neutral, <0 antagonist
[4] = NCI-H292 cells, cholesterol-free media without statin, FDA drug library screen
[5] = NCI-H292 cells, complete media, FDA drug library screen
[6] = FDA drug library screen, cholesterol-free media with simvastatin 0.04 μM
[7] = complete media minus cholesterol-free media + simvastatin, >0 enhanced anti-cancer activity, about 0 neutral, <0 antagonist
[8] = complete vs cholesterol-free media; >0 enhanced anti-cancer activity, about 0 neutral, <0 antagonist
[9] = FDA library drug in cholesterol-free media with simvastatin 0.04 μM
[10] = FDA library drug in complete media
[11] = complete media vs cholesterol-free media + simvastatin (0.04 μM), >0 enhanced anti-cancer activity, about 0 neutral, <0 antagonist
[12] = Complete minus Cholesterol-free; greater than 0 enhanced anti-cancer activity, about 0 neutral, below 0 antagonist
[13] = NCI-H292 cells, FDA drug library screen, cholesterol-free media without statin
[14] = NCI-H292 cells, FDA drug library screen, complete media
[15] = drug in cholesterol-free media with simvastatin 0.04 μM
[16] = NCI-H292 cells, cholesterol-free media without statin
[17] = FDA drug library screen, complete media
[18] = Complete minus Cholesterol-free; […]
[19] = complete media vs cholesterol-free media + simvastatin (0.04 μM), […]

CNC[C@H](O)[C@@H](O)[C@H](O)[C@H](O)CO.O=C(O)c1ccc2nc(-c3cc(Cl)cc(Cl)c3)oc2c1 [Tafamidis meglumine]
Difference [1, 3]: −0.03 | Cholesterol-free [1, 4]: 0.8398 | Complete [1, 5]: 0.8088 | Cholesterol-free media + simvastatin (0.04 μM) [2, 6]: 0.9551 | Difference [2, 7]: 0.20

O=C(O)c1ccc2nc(-c3cc(Cl)cc(Cl)c3)oc2c1 [Tafamidis]
Cholesterol-free [1, 4]: 0.399 | Complete [1, 5]: 0.8565 | Difference [1, 8]: 0.46 | Cholesterol-free media + simvastatin (0.04 μM) [2, 9]: 1.307 | Complete Media [2, 10]: 0.9388 | Difference [2, 11]: −0.37

CC(C)OC(=O)CCC/C=C\C[C@@H]1[C@@H](/C=C/C(F)(F)COc2ccccc2)[C@H](O)C[C@@H]1O [Tafluprost]
Difference [1, 12]: −0.18 | Cholesterol-free [1, 13]: 0.9541 | Complete [1, 14]: 0.7736 | Cholesterol-free media + simvastatin (0.04 μM) [2, 15]: 1.261 | Complete Media ([2]; drug in complete media): 1.095 | Difference [2, 11]: −0.17

C=Cc1c(C)c2cc3nc(c(CC(=O)N[C@@H](CC(=O)O)C(=O)O)c4[nH]c(cc5nc(cc1[nH]2)C(C)=C5CC)c(C)c4C(=O)O)[C@@H](CCC(=O)O)[C@@H]3C [Talaporfin (sodium)]
Difference [1, 3]: −0.29 | Cholesterol-free [1, 16]: 1.22 | Complete ([1]; NCI-H292 cells, complete media): 0.9319 | Cholesterol-free media + simvastatin (0.04 μM) [2, 6]: 1.087 | Complete Media [2, 17]: 0.9459 | Difference [2, 11]: −0.14

Cn1ncnc1[C@H]1c2n[nH]c(=O)c3cc(F)cc(c23)N[C@@H]1c1ccc(F)cc1 [Talazoparib tosylate]
Difference [1, 3]: 0.05 | Cholesterol-free [1, 4]: 0.1398 | Complete [1, 5]: 0.1924 | Cholesterol-free media + simvastatin (0.04 μM) [2, 9]: 0.5996 | Complete Media [2, 10]: 0.312 | Difference [2, 11]: −0.29

Cn1ncnc1[C@H]1c2n[nH]c(=O)c3cc(F)cc(c23)N[C@@H]1c1ccc(F)cc1 [Talazoparib]
Difference [1, 3]: −0.06 | Cholesterol-free [1, 4]: 0.2349 | Complete [1, 5]: 0.179 | Cholesterol-free media + simvastatin (0.04 μM) ([2]; cholesterol-free media with simvastatin 0.04 μM, cell growth value in FDA drug screen): 0.3041 | Complete Media ([2]; complete media, cell growth value in FDA drug screen): 0.3489 | Difference [2, 7]: 0.04

C=CCN1CCc2nc(N)sc2CC1 [Talipexole dihydrochloride]
Difference [1, 12]: −0.09 | Cholesterol-free [1, 13]: 1.016 | Complete [1, 14]: 0.9282 | Cholesterol-free media + simvastatin (0.04 μM) [2, 15]: 1.333 | Complete Media ([2]; drug in complete media): 1.079 | Difference [2, 11]: −0.25

O=C1OC(OC(=O)c2cccnc2Nc2cccc(C(F)(F)F)c2)c2ccccc21 (stereo not shown) [Talniflumate]
Cholesterol-free [1, 4]: 0.679 | Complete [1, 5]: 1.267 | Difference [1, 8]: 0.59 | Cholesterol-free media + simvastatin (0.04 μM) [2, 15]: 1.554 | Complete Media ([2]; drug in complete media): 1.302 | Difference [2, 11]: −0.25

CC(=O)O.CN1C(=O)C[C@@H](C(=O)N[C@@H](Cc2cnc[nH]2)C(=O)N2CCC[C@H]2C(N)=O)NC1=O [Taltirelin (acetate)]
Difference [1, 18]: −0.12 | Cholesterol-free [1, 13]: 1.092 | Complete [1, 14]: 0.9679 | Cholesterol-free media + simvastatin (0.04 μM) [2, 6]: 1.154 | Complete Media [2, 17]: 1.062 | Difference [2, 19]: −0.09

CN1C(=O)C[C@@H](C(=O)N[C@@H](Cc2c[nH]cn2)C(=O)N2CCC[C@H]2C(N)=O)NC1=O [Taltirelin]
Cholesterol-free [1, 16]: 1.305 | Complete ([1]; NCI-H292 cells, complete media): 0.871 | Difference ([1]; complete vs cholesterol-free media; […]): −0.43 | Cholesterol-free media + simvastatin (0.04 μM) [2, 15]: 1.39 | Difference [2, 19]: −0.24

CC1(C)CCC(C)(C)c2cc(NC(=O)c3ccc(C(=O)O)cc3)ccc21 [Tamibarotene]
Difference [1, 18]: −0.24 | Cholesterol-free [1, 16]: 0.7767 | Complete ([1]; NCI-H292 cells, complete media): 0.5392 | Cholesterol-free media + simvastatin (0.04 μM) [2, 6]: 0.556 | Complete Media [2, 17]: 0.7365 | Difference ([2]; complete media minus cholesterol-free media + simvastatin, […]): 0.18

CC/C(=C(\c1ccccc1)c1ccc(OCCN(C)C)cc1)c1ccccc1 [Tamoxifen]
Difference [1, 3]: 0.05 | Cholesterol-free [1, 4]: 0.6611 | Complete [1, 5]: 0.7069 | Cholesterol-free media + simvastatin (0.04 μM) [2, 6]: 0.7526 | Complete Media [2, 17]: 1.084 | Difference [2, 7]: 0.33

CCOc1ccccc1OCCN[C@H](C)Cc1ccc(OC)c(S(N)(=O)=O)c1 [Tamsulosin]
Difference [1, 12]: −0.14 | Cholesterol-free [1, 13]: 1.006 | Complete [1, 14]: 0.8695 | Cholesterol-free media + simvastatin (0.04 μM) [2, 15]: 1.361 | Complete Media ([2]; drug in complete media): 1.178 | Difference [2, 11]: −0.18

O=C1[C@@H]2[C@H]3CC[C@H](C3)[C@@H]2C(=O)N1CCCCN1CCN(c2ncccn2)CC1 [Tandospirone]
Difference [1, 3]: −0.26 | Cholesterol-free [1, 16]: 1.451 | Complete ([1]; NCI-H292 cells, complete media): 1.192 | Cholesterol-free media + simvastatin (0.04 μM) ([2]; cholesterol-free media with simvastatin 0.04 μM, FDA drug library screen (TABLE 2)): 0.8591 | Complete Media ([2]; complete media, FDA drug library screen (TABLE 2)): 0.8479 | Difference ([2]; complete media minus cholesterol-free media + simvastatin (0.04 μM), >0 enhanced anti-cancer activity, about 0 neutral, <0 antagonist): −0.01
